Assay results taken from PubChem BioAssay (NCI).
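Each compound was tested at five concentrations against cells in 96-well plates for 48 hours. TGI is the concentration that stops growth completely.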

Tests used:
Test in all cases: DTP human tumour cell line panel, 48 h
MOLT-4 leukemia = system: MOLT-4 leukemia
SK-OV-3 ovarian = system: SK-OV-3 ovarian
MDA-MB-435 = system: MDA-MB-435
HOP-62 NSCLC = system: HOP-62 NSCLC
NCI-H23 lung = system: NCI-H23 lung
UACC-62 melanoma = system: UACC-62 melanoma
HOP-92 NSCLC = system: HOP-92 NSCLC
IGROV1 ovarian = system: IGROV1 ovarian
MDA-MB-231 breast = system: MDA-MB-231 breast
SK-MEL-28 melanoma = system: SK-MEL-28 melanoma
SF-268 CNS = system: SF-268 CNS
OVCAR-5 ovarian = system: OVCAR-5 ovarian
OVCAR-4 ovarian = system: OVCAR-4 ovarian
HCT-116 colon = system: HCT-116 colon
NCI-H460 lung = system: NCI-H460 lung
NCI-H226 lung = system: NCI-H226 lung
HT29 colon = system: HT29 colon
MDA-N = system: MDA-N
LOX IMVI melanoma = system: LOX IMVI melanoma
OVCAR-3 ovarian = system: OVCAR-3 ovarian
CCRF-CEM leukemia = system: CCRF-CEM leukemia
SK-MEL-2 melanoma = system: SK-MEL-2 melanoma
UACC-257 melanoma = system: UACC-257 melanoma
HS 578T breast = system: HS 578T breast
KM12 colon = system: KM12 colon
HCC-2998 colon = system: HCC-2998 colon
HCT-15 colon = system: HCT-15 colon
SNB-75 CNS = system: SNB-75 CNS
M14 melanoma = system: M14 melanoma
SW-620 colon = system: SW-620 colon
COLO 205 colon = system: COLO 205 colon
U251 CNS = system: U251 CNS
MALME-3M melanoma = system: MALME-3M melanoma
TK-10 renal = system: TK-10 renal
NCI/ADR-RES ovarian = system: NCI/ADR-RES ovarian
K-562 leukemia = system: K-562 leukemia
SK-MEL-5 melanoma = system: SK-MEL-5 melanoma
SN12C renal = system: SN12C renal
DU-145 prostate = system: DU-145 prostate
SF-295 CNS = system: SF-295 CNS
A498 renal = system: A498 renal
BT-549 breast = system: BT-549 breast
A549 NSCLC = system: A549 NSCLC
T-47D breast = system: T-47D breast
RPMI-8226 leukemia = system: RPMI-8226 leukemia
SNB-19 CNS = system: SNB-19 CNS
ACHN renal = system: ACHN renal
786-0 renal = system: 786-0 renal
PC-3 prostate = system: PC-3 prostate
UO-31 renal = system: UO-31 renal
OVCAR-8 ovarian = system: OVCAR-8 ovarian
RXF 393 renal = system: RXF 393 renal
CAKI-1 renal = system: CAKI-1 renal
EKVX NSCLC = system: EKVX NSCLC
MCF7 breast = system: MCF7 breast
NCI-H522 lung = system: NCI-H522 lung
HL-60(TB) leukemia = system: HL-60(TB) leukemia

O=C(Cn1c2ccc(Br)cc2c2nc3ccccc3nc21)N1CCOCC1
TGI (MOLT-4 leukemia): > 100 µM | TGI (SK-OV-3 ovarian): > 100 µM | TGI (MDA-MB-435): > 100 µM | TGI (HOP-62 NSCLC): > 100 µM | TGI (NCI-H23 lung): > 100 µM | TGI (UACC-62 melanoma): > 100 µM | TGI (HOP-92 NSCLC): 83.3 µM | TGI (IGROV1 ovarian): > 100 µM | TGI (MDA-MB-231 breast): > 100 µM | TGI (SK-MEL-28 melanoma): > 100 µM | TGI (SF-268 CNS): > 100 µM | TGI (OVCAR-5 ovarian): > 100 µM | TGI (OVCAR-4 ovarian): > 100 µM | TGI (HCT-116 colon): > 100 µM | TGI (NCI-H460 lung): > 100 µM | TGI (NCI-H226 lung): > 100 µM | TGI (HT29 colon): > 100 µM | TGI (MDA-N): > 100 µM | TGI (LOX IMVI melanoma): > 100 µM | TGI (OVCAR-3 ovarian): > 100 µM | TGI (CCRF-CEM leukemia): > 100 µM | TGI (SK-MEL-2 melanoma): > 100 µM | TGI (UACC-257 melanoma): > 100 µM | TGI (HS 578T breast): > 100 µM | TGI (KM12 colon): > 100 µM | TGI (HCC-2998 colon): > 100 µM | TGI (HCT-15 colon): > 100 µM | TGI (SNB-75 CNS): > 100 µM | TGI (M14 melanoma): > 100 µM | TGI (SW-620 colon): > 100 µM | TGI (COLO 205 colon): > 100 µM | TGI (U251 CNS): > 100 µM | TGI (MALME-3M melanoma): > 100 µM | TGI (TK-10 renal): > 100 µM | TGI (NCI/ADR-RES ovarian): > 100 µM | TGI (K-562 leukemia): > 100 µM | TGI (SK-MEL-5 melanoma): > 100 µM | TGI (SN12C renal): > 100 µM | TGI (DU-145 prostate): > 100 µM | TGI (SF-295 CNS): > 100 µM | TGI (A498 renal): > 100 µM | TGI (BT-549 breast): > 100 µM | TGI (A549 NSCLC): > 100 µM | TGI (T-47D breast): > 100 µM | TGI (RPMI-8226 leukemia): > 100 µM | TGI (SNB-19 CNS): > 100 µM | TGI (ACHN renal): > 100 µM | TGI (786-0 renal): > 100 µM | TGI (PC-3 prostate): > 100 µM | TGI (UO-31 renal): > 100 µM | TGI (OVCAR-8 ovarian): > 100 µM | TGI (RXF 393 renal): 98.9 µM | TGI (CAKI-1 renal): > 100 µM

O=C1NC(NNc2ccccc2)=N/C1=C\c1ccco1
TGI (MOLT-4 leukemia): > 100 µM | TGI (SK-OV-3 ovarian): > 100 µM | TGI (MDA-MB-435): 47.6 µM | TGI (HOP-62 NSCLC): > 100 µM | TGI (EKVX NSCLC): 46.7 µM | TGI (NCI-H23 lung): 45.9 µM | TGI (UACC-62 melanoma): 17.3 µM | TGI (HOP-92 NSCLC): 30.6 µM | TGI (IGROV1 ovarian): 34 µM | TGI (MDA-MB-231 breast): 54.7 µM | TGI (SK-MEL-28 melanoma): 68.5 µM | TGI (SF-268 CNS): 75.2 µM | TGI (OVCAR-5 ovarian): > 100 µM | TGI (OVCAR-4 ovarian): 32.7 µM | TGI (HCT-116 colon): 37.9 µM | TGI (NCI-H460 lung): 55 µM | TGI (HT29 colon): 52.3 µM | TGI (MDA-N): > 100 µM | TGI (OVCAR-3 ovarian): 38.1 µM | TGI (CCRF-CEM leukemia): > 100 µM | TGI (SK-MEL-2 melanoma): 48.2 µM | TGI (UACC-257 melanoma): 63.5 µM | TGI (HS 578T breast): 74.5 µM | TGI (MCF7 breast): 34 µM | TGI (KM12 colon): 54.6 µM | TGI (HCC-2998 colon): 33 µM | TGI (HCT-15 colon): 33 µM | TGI (NCI-H522 lung): 27.8 µM | TGI (SNB-75 CNS): > 100 µM | TGI (M14 melanoma): 44.5 µM | TGI (SW-620 colon): 60.7 µM | TGI (COLO 205 colon): 25.1 µM | TGI (U251 CNS): 39.8 µM | TGI (MALME-3M melanoma): 81.6 µM | TGI (TK-10 renal): 36.4 µM | TGI (NCI/ADR-RES ovarian): > 100 µM | TGI (SK-MEL-5 melanoma): > 100 µM | TGI (SN12C renal): 49.9 µM | TGI (DU-145 prostate): 42.9 µM | TGI (SF-295 CNS): > 100 µM | TGI (A498 renal): > 100 µM | TGI (BT-549 breast): 50.7 µM | TGI (A549 NSCLC): > 100 µM | TGI (T-47D breast): 44.9 µM | TGI (RPMI-8226 leukemia): 66 µM | TGI (SNB-19 CNS): > 100 µM | TGI (ACHN renal): 25.9 µM | TGI (786-0 renal): 40.2 µM | TGI (PC-3 prostate): 71.5 µM | TGI (UO-31 renal): 55.2 µM | TGI (OVCAR-8 ovarian): 32.7 µM | TGI (HL-60(TB) leukemia): 90.3 µM | TGI (RXF 393 renal): 28.6 µM | TGI (CAKI-1 renal): 30.6 µM
